Data reported in ChEMBL document CHEMBL1806395, “Recognition of drug degradation products by target proteins: isotetracycline binding to Tet repressor” (J Med Chem, 2011).

Assays:
[1] = Binding affinity to recombinant TetR(D) expressed in Escherichia coli RB791 by SPR analysis
[2] = Binding affinity to recombinant TetR(D) expressed in Escherichia coli RB791 by fuorescence assay

Ka [2] [µM⁻¹]	SMILES	Ka [1] [µM⁻¹]
	CN(C)[C@@H]1C(O)=C(C(N)=O)C(=O)[C@@]2(O)C(O)=C[C@@H]([C@]3(C)OC(=O)c4c(O)ccc(Cl)c43)C[C@@H]12	0.8
2.3	CN(C)[C@@H]1C(O)=C(C(N)=O)C(=O)[C@@]2(O)C(O)=C3C(=O)c4c(O)ccc(Cl)c4[C@@](C)(O)[C@H]3C[C@@H]12	2.36
